# Reference: US9102635B2, “Substituted bisphenyl butanoic acid derivatives as NEP inhibitors with improved in vivo efficacy” (NOVARTIS AG, priority 2013, dated 2015)
# pIC50: −log10 of the molar value.
# How the values were obtained:
# peripheral NEP = target: T1, peripheral NEP (Rattus norvegicus, UniProt P07861); assay: ANP potentiation model in conscious rats (plasma ANP after oral dose); format: in vivo, Wistar Han (WH) rats; details: for PANP % of baseline: 0- to 8-hr time-weighted average of plasma ANP, ANP infusion 450 ng/kg/min i.v.
# T1 construct: from tissue; host or cells: whole animal: adult male Wistar Han rats (Charles River Labs), peripheral tissues
# T1 sequence (P07861 1-750): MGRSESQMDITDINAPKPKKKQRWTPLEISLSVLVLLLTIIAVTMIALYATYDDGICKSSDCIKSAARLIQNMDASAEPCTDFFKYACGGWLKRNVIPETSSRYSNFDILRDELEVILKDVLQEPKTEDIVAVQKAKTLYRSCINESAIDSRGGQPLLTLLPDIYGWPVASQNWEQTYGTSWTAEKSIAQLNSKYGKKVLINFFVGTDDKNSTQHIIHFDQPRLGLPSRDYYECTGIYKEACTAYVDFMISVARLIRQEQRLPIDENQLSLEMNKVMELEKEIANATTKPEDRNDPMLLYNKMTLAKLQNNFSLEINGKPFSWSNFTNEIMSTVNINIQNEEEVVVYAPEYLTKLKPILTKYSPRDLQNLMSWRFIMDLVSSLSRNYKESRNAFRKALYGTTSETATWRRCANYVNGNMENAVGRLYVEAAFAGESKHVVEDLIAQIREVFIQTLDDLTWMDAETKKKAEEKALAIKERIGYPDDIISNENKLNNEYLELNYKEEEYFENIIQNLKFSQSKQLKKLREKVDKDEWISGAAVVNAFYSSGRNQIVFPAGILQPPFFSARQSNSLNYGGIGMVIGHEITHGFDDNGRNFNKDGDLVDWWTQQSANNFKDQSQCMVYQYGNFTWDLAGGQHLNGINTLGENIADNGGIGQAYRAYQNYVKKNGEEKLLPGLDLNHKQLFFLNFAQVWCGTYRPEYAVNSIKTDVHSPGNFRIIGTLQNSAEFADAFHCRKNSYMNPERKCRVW
# Procedure: In particular, the in vivo inhibition of recombinant human neutral endopeptidase can be determined as follows:
# Thus, the potentiation of plasma ANP was used as an index of the extent and duration of inhibition of peripheral NEP by the orally administered compounds.
# They were housed on a 12-hr light/dark cycle (light: 6 am to 6 pm) at temperature and relative humidity set points of 72° F. and 55%, respectively. […] In this case, the evening before the experiment (˜5 pm) all but two of the rat's chow pellets were removed. On the morning of the experiment, any remaining food was removed. […] Food was returned at the experiment terminus.
# Rats were surgically instrumented with catheters to allow collection of arterial blood samples and intravenous (i.v.) administration of ANP. Rats were anesthetized and maintained in a surgical plane of anesthesia with isoflurane (2% in 100% oxygen). Ophthalmic lubricant was applied to each eye to prevent corneal irritation. Meloxicam (0.2 mg/kg s.c.) was administered for analgesia. If necessary for pain management, a second injection of meloxicam was administered on the first post-operative day. Also, a dose of penicillin G (50,000 U/kg i.m.) was administered pre-operatively to prevent infection.
# Under aseptic surgical conditions, a femoral artery and vein were isolated and catheters inserted. Catheters consisted of a ˜55-cm length of Tygon (PVC) Microbore tubing (0.020″, 0.060″ O.D.) bonded with cyclohexanone to a 4.5-cm length of polyurethane (0.012″ I.D., 0.025″ O.D., Micro-Renathane type MRE-025, Braintree Scientific, Inc., Braintree, Mass.) tubing. The catheters were tunneled subcutaneously and exteriorized in the mid-dorsal thoracic/abdominal region. Catheters exited through a subcutaneously anchored tether/swivel system which allowed the animal to move unrestrained in a specialized Plexiglas cage with perforated solid flooring. Catheters were flushed with sterile 0.9% saline and locked with 200 U/mL heparin in sterile 0.9% saline after the surgery was completed.
# The rats were allowed to recover for at least one week before being studied while conscious and unrestrained. Rats were infused intravenously (450 ng/kg/min) with rat ANP (ANP (1-28), Product #14-5-41, American Peptide Company, Inc., Sunnyvale, Calif.). After 1 hr of ANP infusion, rats were treated by oral gavage with 1 mL/kg of vehicle (0.5% methylcellulose+0.1% Tween 80) or a selected dose of NEP inhibitor. ANP infusion was continued for an additional 8 hr. Arterial blood samples (0.20 mL) were withdrawn from the femoral arterial cannulas at various times (baseline or time 0, 0.25, 0.5, 1, 2, 4, 6, and 8 hr) into a collection tube containing 0.004 mL EDTA/protease inhibitor (PI) cocktail. Blood samples were centrifuged at 4° C. and 20K g to separate plasma. Plasma samples were aliquoted and frozen (−70° C.) for later analysis of plasma ANP (PANP) levels. The O— to 8-hr time-weighted averages of the PANP concentrations expressed as a percent of the baseline (time 0) PANP values were used to generate dose-response relationships.
# The blood collection cocktail consisted of broad-spectrum serine and cysteine PIs and EDTA. […] It also anticoagulated the blood.
# The frozen plasma sample was thawed on ice and 10 μL of plasma was diluted 1:10 in 1× assay buffer supplied with the kit. Ten μL of the diluted sample was then assayed. The manufacturer's instructions were followed for the assay protocol (total volume per well was expanded to 50 μl with 1× assay buffer). Absorbance was read (Molecular Devices SpectraMax Paradigm Multi-Mode Detection Platform) at 450 nm within ten minutes of the assay termination.
# [1] = target: T2, recombinant human neutral endopeptidase (Homo sapiens, UniProt P08473); assay: in vitro inhibition of recombinant human neutral endopeptidase (fluorescence lifetime assay); format: biochemical; details: 1 hour pre-incubation, 1 hour reaction, room temperature, pH 7.4; read-out: Human NEP IC50
# T2 construct: made in house; host or cells: insect cells
# T2 sequence (P08473 whole entry): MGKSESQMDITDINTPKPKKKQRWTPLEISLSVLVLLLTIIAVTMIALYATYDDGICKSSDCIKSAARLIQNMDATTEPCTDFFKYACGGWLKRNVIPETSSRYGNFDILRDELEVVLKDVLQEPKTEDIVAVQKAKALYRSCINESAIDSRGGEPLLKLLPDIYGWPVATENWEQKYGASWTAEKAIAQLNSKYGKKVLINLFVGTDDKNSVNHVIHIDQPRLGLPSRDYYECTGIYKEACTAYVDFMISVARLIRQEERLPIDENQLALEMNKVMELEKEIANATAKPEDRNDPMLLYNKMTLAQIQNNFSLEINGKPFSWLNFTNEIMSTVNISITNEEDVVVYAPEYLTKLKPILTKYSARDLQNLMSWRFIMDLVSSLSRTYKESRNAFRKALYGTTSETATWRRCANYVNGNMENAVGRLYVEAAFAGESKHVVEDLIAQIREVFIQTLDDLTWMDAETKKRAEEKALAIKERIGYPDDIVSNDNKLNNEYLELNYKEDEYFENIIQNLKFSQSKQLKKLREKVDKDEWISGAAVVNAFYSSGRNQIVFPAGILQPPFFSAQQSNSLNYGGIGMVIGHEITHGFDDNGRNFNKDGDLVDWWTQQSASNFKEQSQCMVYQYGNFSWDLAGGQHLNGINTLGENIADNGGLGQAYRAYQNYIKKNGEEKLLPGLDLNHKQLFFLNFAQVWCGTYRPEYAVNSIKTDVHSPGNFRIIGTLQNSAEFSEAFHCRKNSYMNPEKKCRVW
# Source text: The activity of a compound according to the present invention can be assessed by the following in vitro and in vivo methods and/or by the following in vitro and in vivo methods well-described in the art. See Doering K, Meder G, Hinnenberger M, Woelcke J, Mayr L M, Hassiepen U, (2009) “A fluorescence lifetime-based assay for protease inhibitor profiling on human kallikrein 7”, Biomol Screen, January; 14(1):1-9.
# In particular, the in vitro inhibition of recombinant human neutral endopeptidase can be determined as follows:
# Recombinant human neutral endopeptidase (expressed in insect cells and purified using standard methods, final concentration 7 pM) is pre-incubated with test compounds at various concentrations for 1 hour at room temperature in 10 mM sodium phosphate buffer at pH 7.4, containing 150 mM NaCl and 0.05% (w/v) CHAPS. The enzymatic reaction is started by the addition of a synthetic peptide substrate Cys(PT14)-Arg-Arg-Leu-Trp-OH to a final concentration of 0.7 μM. Substrate hydrolysis leads to an increase in fluorescence lifetime (FLT) of PT14 measured by means of a FLT reader as described by Doering et al. (2009) as referenced supra. The effect of the compound on the enzymatic activity was determined after 1 hour (t=60 min) incubation at room temperature. […]
Compound,PANP % of baseline (peripheral NEP; dose 3 mg/kg oral gavage),PANP % of baseline (peripheral NEP; dose 10 mg/kg oral gavage),PANP % of baseline (peripheral NEP; dose 30 mg/kg oral gavage),PANP % of baseline (peripheral NEP; dose 100 mg/kg oral gavage),pIC50 [1],"in vivo efficacy compared to Example 5-46 of WO2010/136493 (peripheral NEP; ANP potentiation model, oral)",PANP % of baseline (peripheral NEP; dose 1 mg/kg oral gavage)
"O=C(O)C[C@@H](Cc1ccc(-c2cccc(Cl)c2)cc1)NC(=O)c1n[nH]c(=O)o1 [Example 5-46 of WO2010/136493, reference compound]",137 % of baseline,126 % of baseline,185 % of baseline,254 % of baseline,–,–,–
"COc1ccc(F)cc1-c1ccc(C[C@H](CC(=O)O)NC(=O)c2n[nH]c(=O)o2)cc1 [Example 1, (R)-4-(5′-fluoro-2′-methoxy-[1,1-biphenyl]-4-yl)-3-(5-oxo-4,5-dihydro-1,3,4-oxadiazole-2-carboxamido)butanoic acid]",183 % of baseline,238 % of baseline,–,–,10.22,superior efficacy,141 % of baseline
